Source: patent US20240217948A1, “CRYSTALLINE FORMS OF A LPA1 ANTAGONIST” (Bristol-Myers Squibb Company, priority 2022, published 2024)

Assays:
[1] = tested on: progressive pulmonary fibrosis; conditions: patients with PPF, versus placebo, 52-week study period; cited from earlier work
[2] = tested on: idiopathic pulmonary fibrosis; conditions: patients with IPF; cited from earlier work
[3] = Moisture sorption isotherms; assay type: physicochemical; conditions: 25° C., 4-95% RH (FIG. 4)
Description: Moisture sorption isotherms were collected in a TA Instrument VTI-SA+ Vapor Sorption Analyzer using approximately 270 mg of sample in a 250 μL ceramic pan. The sample was dried at 30° C. until the loss rate of 0.005 wt %/min was obtained for 10 minutes. The sample was tested at 25° C. and 4, 5, 15, 25, 35, 45, 50, 65, 75, 85, and 95% RH. Equilibration at each RH was reached when the rate of 0.01 wt %/min for 35 minutes was achieved or a maximum of 600 minutes.

| hygroscopicity [3] | Compound | progression of lung fibrosis (annual rate of decline in FVC) [1] | decline in lung function [2] |
| --- | --- | --- | --- |
| – | COC(=O)c1ccc2c(c1)NC(=O)/C2=C(\Nc1ccc(N(C)C(=O)CN2CCN(C)CC2)cc1)c1ccccc1 [nintedanib] | slower progression of lung fibrosis | significantly reduce the decline in lung function |
| non-hygroscopicity | CCCN(C)C(=O)OCc1c(-c2ccc(O[C@H]3CCC[C@H](C(=O)O)C3)c(C)n2)nnn1C [Form A] | – | – |
| – | Cc1ccc(=O)n(-c2ccccc2)c1 [pirfenidone] | – | significantly reduce the decline in lung function |
